Assay results reported in ChEMBL document CHEMBL1201862, “PubChem BioAssay data set” (2004).
Activity calls are given as the source filed them. Cut-off read from the data, not from the text of the source, for most assays here: actives have a measured EC50 and inactives only a lower limit.

Tests used:
[1] = NIH-3T3 fibroblast cytotoxicity, dose response, cytotoxicity control, cell-based, fluorescence, Alamar Blue, secondary assay (AID 2327); type: functional;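 note: NIH-3T3 mouse fibroblasts cultured with fluconazole at 8 µg/mL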
[2] = C. albicans growth with fluconazole, confirmation, fluorescence, retest (AID 2467); type: functional, cell-based
[3] = P. falciparum Dd2 growth inhibitors, dose response, SYBR Green, cherry-picked samples (AID 1159567); type: functional, cell-based
[4] = growth suppression of PTEN-null colon cells, dose response, cell-based, HCT116 PTEN knockout (AID 1047); type: functional;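 note: HCT116 colon tumor cells with PTEN knocked out; cells exposed to compound for 60 hours before readout; potency for loss of cell viability measured by luminescence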
[5] = growth suppression of beta-catenin-knockout colon cells, dose response, cell-based, HCT116, human colon tumor (AID 1045); type: functional;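 note: HCT116 colon tumor cells with beta catenin knocked out; cells exposed to compound for 60 hours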
[6] = biological target: T1, Replicative DNA helicase DnaB (Mycobacterium tuberculosis, UniProt P9WMR3); test: DnaB intein splicing inhibitors, dose response, biochemical, cell-free fluorescence (AID 449749); type: functional
T1 sequence (P9WMR3 whole entry): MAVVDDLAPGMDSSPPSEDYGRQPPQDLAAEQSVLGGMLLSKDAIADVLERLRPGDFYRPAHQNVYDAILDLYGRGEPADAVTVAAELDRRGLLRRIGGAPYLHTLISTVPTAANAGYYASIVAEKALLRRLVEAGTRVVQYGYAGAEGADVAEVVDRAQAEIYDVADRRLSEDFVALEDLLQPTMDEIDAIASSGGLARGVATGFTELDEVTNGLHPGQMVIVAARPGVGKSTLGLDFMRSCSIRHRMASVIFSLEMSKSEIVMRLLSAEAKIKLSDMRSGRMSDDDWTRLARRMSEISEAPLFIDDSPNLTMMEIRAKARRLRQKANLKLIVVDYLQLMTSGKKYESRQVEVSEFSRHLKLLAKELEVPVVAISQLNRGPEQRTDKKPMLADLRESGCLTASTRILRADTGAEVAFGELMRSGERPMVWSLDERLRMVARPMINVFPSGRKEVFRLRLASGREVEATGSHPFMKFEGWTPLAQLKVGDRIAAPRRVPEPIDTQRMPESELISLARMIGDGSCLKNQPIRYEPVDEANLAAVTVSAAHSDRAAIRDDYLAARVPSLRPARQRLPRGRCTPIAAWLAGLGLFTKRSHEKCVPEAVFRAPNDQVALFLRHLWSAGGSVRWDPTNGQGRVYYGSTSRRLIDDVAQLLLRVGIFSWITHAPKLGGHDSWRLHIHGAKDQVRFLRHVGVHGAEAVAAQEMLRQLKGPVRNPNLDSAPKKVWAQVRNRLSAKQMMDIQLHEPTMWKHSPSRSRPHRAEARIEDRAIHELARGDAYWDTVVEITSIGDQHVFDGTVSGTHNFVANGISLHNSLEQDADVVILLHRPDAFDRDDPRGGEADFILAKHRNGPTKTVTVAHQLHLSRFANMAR

[7] = biological target: T2, Protein RecA (Mycobacterium tuberculosis, UniProt P9WHJ3); test: Fluorescence Cell-Free Homogeneous Dose Retest to Identify Inhibitors of RecA-Intein Splicing Activity. [Related pubchem assays (depositor defined):AID2097, AID2223, AID489010, AID492950]; type: functional
T2 sequence (P9WHJ3 whole entry): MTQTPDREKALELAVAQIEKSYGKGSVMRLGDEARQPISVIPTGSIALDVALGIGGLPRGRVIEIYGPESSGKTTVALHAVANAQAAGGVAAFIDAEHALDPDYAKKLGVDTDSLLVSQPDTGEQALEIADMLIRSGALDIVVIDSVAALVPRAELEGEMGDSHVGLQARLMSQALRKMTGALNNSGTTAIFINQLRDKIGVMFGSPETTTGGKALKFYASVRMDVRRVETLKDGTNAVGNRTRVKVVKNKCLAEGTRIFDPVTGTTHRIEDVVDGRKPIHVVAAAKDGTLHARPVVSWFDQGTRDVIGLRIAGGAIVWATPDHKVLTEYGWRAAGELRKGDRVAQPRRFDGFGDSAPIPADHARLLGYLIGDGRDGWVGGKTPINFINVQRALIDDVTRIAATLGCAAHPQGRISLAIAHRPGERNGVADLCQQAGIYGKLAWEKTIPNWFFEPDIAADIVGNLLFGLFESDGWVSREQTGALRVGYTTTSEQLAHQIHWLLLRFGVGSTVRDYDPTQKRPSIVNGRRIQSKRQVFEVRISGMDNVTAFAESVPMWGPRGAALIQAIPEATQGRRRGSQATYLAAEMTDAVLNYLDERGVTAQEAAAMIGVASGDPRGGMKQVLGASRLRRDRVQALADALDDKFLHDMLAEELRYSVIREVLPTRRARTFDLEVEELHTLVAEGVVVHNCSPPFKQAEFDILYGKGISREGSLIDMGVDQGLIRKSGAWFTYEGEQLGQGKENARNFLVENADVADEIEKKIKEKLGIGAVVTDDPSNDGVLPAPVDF

[8] = inhibitors of firefly luciferase expression or activity, dose response, H4 neuroglioma cells, luminescence (AID 1990); type: functional, cell-based
[9] = Luminescence Cell-Based Dose Response HTS to Identify Inhibitors of 5'UTR Stem-Loop Driven Prion Protein mRNA Translation in H4 Neuroglioblastoma Cells. [Related pubchem assays: 1827 (Project Summary), 1813 (Primary HTS)]; type: functional
[10] = inhibitors of SNCA 5'UTR-driven reporter translation, confirmation, H4 neuroglioma cells, luminescence (AID 1988); type: functional, cell-based
[11] = inhibitors of intracellular T. cruzi replication, confirmation, NIH3T3 host cells, beta-gal luminescence (AID 2044); type: functional, cell-based;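 note: intracellular parasites grown in NIH/3T3 mouse fibroblasts as host cells; luminescent beta-galactosidase reporter signal from transgenic T. cruzi replicating inside host cells; inhibitors lower the luminescence signal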
[12] = cytotoxicity toward NIH3T3 fibroblasts, dose response, counter-screen, cell-based, ATP luminescence, mouse fibroblasts (AID 2010); type: functional;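 note: cells exposed to compound for about 90 hours before reading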
[13] = biological target: Fatty acid synthase (Homo sapiens, UniProt P49327); test: FAS thioesterase domain inhibitors, dose response, biochemical, kinetic fluorescence intensity (AID 624326); type: functional;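 note: rate of fluorescence rise from hydrolysis of a fluorogenic O-methyl fluorescein ester substrate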
Chain of Fatty acid synthase (P49327 whole entry, the tested form may be a part): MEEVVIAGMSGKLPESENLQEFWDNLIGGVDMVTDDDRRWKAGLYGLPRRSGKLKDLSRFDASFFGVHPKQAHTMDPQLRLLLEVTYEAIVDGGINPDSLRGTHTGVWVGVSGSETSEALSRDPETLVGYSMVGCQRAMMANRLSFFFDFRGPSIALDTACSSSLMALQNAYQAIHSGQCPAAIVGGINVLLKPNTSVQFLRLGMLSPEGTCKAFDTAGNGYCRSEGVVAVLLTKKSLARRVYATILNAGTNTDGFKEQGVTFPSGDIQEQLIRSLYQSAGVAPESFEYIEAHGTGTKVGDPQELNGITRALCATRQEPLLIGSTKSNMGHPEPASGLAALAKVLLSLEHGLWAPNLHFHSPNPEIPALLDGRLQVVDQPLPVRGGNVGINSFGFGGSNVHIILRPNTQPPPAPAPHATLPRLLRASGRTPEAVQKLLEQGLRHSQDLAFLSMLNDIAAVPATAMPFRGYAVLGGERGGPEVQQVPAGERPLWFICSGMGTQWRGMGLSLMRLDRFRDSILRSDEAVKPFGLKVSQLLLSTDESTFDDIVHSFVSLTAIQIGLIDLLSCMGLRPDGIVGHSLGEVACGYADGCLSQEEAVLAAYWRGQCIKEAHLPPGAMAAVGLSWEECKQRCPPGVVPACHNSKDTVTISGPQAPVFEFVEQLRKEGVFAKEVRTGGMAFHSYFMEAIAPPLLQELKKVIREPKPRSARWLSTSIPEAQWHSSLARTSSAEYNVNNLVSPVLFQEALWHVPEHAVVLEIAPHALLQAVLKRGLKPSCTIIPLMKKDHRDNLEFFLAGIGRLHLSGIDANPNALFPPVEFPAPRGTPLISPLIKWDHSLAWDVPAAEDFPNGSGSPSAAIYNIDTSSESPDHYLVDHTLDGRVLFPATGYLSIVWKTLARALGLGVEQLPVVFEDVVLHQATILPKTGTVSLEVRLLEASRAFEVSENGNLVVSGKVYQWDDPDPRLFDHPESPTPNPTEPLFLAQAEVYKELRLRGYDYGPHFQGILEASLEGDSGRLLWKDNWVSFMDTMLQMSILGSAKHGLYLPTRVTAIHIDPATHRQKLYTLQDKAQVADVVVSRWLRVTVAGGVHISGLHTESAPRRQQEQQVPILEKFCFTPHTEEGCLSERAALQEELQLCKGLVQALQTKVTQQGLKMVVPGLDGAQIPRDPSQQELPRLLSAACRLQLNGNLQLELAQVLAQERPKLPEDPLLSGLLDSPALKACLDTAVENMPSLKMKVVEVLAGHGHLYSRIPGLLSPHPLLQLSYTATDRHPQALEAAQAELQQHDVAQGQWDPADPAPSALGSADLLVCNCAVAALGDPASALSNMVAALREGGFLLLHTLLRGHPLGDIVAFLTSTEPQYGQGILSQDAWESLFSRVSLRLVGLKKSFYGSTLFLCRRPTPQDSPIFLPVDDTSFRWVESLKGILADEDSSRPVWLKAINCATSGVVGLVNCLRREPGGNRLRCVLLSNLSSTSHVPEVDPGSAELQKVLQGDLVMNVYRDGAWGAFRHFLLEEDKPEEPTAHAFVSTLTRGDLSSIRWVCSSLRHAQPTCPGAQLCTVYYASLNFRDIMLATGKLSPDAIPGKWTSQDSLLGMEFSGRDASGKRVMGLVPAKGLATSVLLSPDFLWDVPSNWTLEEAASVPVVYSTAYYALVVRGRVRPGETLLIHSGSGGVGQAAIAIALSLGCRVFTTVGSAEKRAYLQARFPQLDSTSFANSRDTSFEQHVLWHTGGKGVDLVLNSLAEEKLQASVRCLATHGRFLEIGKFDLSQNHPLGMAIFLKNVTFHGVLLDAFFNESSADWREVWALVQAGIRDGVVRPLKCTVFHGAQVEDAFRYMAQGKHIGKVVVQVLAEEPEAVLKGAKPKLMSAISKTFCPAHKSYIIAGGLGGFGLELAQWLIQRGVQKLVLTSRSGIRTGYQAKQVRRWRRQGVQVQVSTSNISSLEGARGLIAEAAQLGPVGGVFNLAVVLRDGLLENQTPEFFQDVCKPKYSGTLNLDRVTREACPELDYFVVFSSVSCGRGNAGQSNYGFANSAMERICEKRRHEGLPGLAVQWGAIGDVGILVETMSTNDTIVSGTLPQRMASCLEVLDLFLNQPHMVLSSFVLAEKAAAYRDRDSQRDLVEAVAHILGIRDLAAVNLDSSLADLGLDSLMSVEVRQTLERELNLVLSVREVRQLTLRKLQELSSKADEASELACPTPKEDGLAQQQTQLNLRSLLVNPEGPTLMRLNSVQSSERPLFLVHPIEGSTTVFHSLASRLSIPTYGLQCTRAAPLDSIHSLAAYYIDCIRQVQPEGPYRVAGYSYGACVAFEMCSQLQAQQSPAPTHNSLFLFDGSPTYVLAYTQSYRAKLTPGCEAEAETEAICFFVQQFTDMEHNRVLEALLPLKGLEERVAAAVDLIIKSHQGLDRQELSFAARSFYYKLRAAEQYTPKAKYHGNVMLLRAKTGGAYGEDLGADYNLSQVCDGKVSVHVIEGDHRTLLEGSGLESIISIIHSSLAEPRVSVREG

SMILES: CSCCC1NC2(C(=O)Nc3c(C)cc(Cl)cc32)[C@@H]2C(=O)N(C3CCCC3)C(=O)[C@H]12 (stereo not given in full)
- EC50 [1]: > 150 µM (inactive)
- EC50 [2]: > 38 µM (not active)

SMILES: CO[C@@H]1CN(C)C(=O)c2cc(NC(=O)c3ccc(Oc4ccccc4)cc3)ccc2OC[C@H](C)NC[C@@H]1C
- AC50 [3]: 5.99 µM (active)

SMILES: CCOc1nc(NCCc2ccc(OC)c(OC)c2)nc(N2CCN(c3ccc(OC)cc3)CC2)n1
- EC50 [4]: 6.42 µM (active)
- EC50 [5]: 10.5 µM (active)

SMILES: O=Cc1ccc(Sc2nnc(-c3ccccc3)o2)c([N+](=O)[O-])c1
- EC50 [4]: 21.4 µM (active)
- EC50 [5]: 18.1 µM (active)
- AC50 [6]: 9.51 µM (active)
- EC50 [7]: 5.46 µM (active)

SMILES: O=Nc1c(O)n(Cc2cccc(C(F)(F)F)c2)c2ccccc12
- EC50 [1]: > 160 µM (inactive)
- EC50 [2]: 1.89 µM (active)

SMILES: CC(C)OC(=O)/C(C#N)=C/c1cn(Cc2ccccc2)c2ccccc12
- EC50 [8]: 11.5 µM (active)
- EC50 [9]: 13.4 µM (active)
- EC50 [10]: 7.08 µM (active)

SMILES: COc1ccc(NC(=O)N(C)C[C@@H]2Oc3cc(-c4ccc(C)cc4)ccc3S(=O)(=O)N([C@@H](C)CO)C[C@H]2C)cc1
- AC50 [3]: 5.06 µM (active)

SMILES: CCOc1ccccc1OCCN1CCC(Cc2ccccc2)CC1
- EC50 [1]: > 150 µM (inactive)
- EC50 [2]: > 38 µM (not active)

SMILES: Fc1ccc(-c2cc3nc(-c4ccccc4)cc(N4CCN(CCN5CCOCC5)CC4)n3n2)cc1
- EC50 [11]: 4.9 µM (active)
- EC50 [4]: 71.2 µM (active)
- EC50 [12]: 7.58 µM (active)
- EC50 [5]: 85 µM (active)

SMILES: O=C1c2ccccc2C(=O)N1CCCCN(C(=O)c1cc2ccccc2oc1=O)c1ccc(F)cc1F
- EC50 [8]: > 120 µM (not active)
- EC50 [9]: > 120 µM (not active)
- EC50 [10]: > 120 µM (not active)

SMILES: COc1ccc(-c2[nH]nc(C)c2-c2cnn(-c3ccccc3)c2)c(O)c1
- EC50 [1]: > 160 µM (inactive)
- EC50 [2]: 3.77 µM (active)

SMILES: O=C(COc1ccc2c(-c3ccccc3)cc(=O)oc2c1)N[C@@H](Cc1c[nH]c2ccc(O)cc12)C(=O)O
- IC50 [13]: 6.9 µM (active)

SMILES: COc1ccc(/C=C2\CN(Cc3ccccc3)C/C(=C\c3ccc(OC)cc3)C2=O)cc1
- EC50 [4]: 6.02 µM (active)
- EC50 [5]: 5.52 µM (active)

SMILES: CCS(=O)(=O)N1CCCCN2[C@H](CO)[C@H](c3ccc(-c4cccc(C#N)c4)cc3)[C@@H]2C1
- AC50 [3]: 12.5 µM (active)

SMILES: COc1ccc2c3c(n(C)c2c1)[C@@H](CO)N(C(=O)Nc1ccc(F)cc1)CC31CN(C(=O)c2ccccc2F)C1
- AC50 [3]: 4.35 µM (active)

SMILES: CCc1cc(=O)oc2cc(OC(C)C(=O)NCC(O)c3ccccc3)c(Cl)cc12 (stereo not given)
- EC50 [8]: > 120 µM (not active)
- EC50 [9]: > 120 µM (not active)
- EC50 [10]: > 120 µM (not active)

SMILES: CO[C@H]1CN(C)C(=O)c2cc(NC(=O)c3ccccc3F)ccc2OC[C@H](C)N(C)C[C@H]1C
- AC50 [3]: > 39 µM (inactive)
